Source: patent US10407388B2, “Thiourea derivatives as activators of RORα and pharmaceutical composition containing same” (SEOUL NATIONAL UNIVERSITY R & DB FOUNDATION, priority 2011, dated 2019)

The compounds below were run against T1, RORα (Homo sapiens, UniProt P35398) (assay: Transcriptional activity of RORα, RORE-tk-Luc reporter in CV-1 cells (Experimental Example 1)). Details: JC1 compounds 100 μM, 24 hours; luciferase activity standardized by β-gal; versus control treated only with solvent.
T1 construct: expressed in transfected cells; host or cells: CV-1 cells (ATCC CCL-70)
T1 sequence (P35398 1-523): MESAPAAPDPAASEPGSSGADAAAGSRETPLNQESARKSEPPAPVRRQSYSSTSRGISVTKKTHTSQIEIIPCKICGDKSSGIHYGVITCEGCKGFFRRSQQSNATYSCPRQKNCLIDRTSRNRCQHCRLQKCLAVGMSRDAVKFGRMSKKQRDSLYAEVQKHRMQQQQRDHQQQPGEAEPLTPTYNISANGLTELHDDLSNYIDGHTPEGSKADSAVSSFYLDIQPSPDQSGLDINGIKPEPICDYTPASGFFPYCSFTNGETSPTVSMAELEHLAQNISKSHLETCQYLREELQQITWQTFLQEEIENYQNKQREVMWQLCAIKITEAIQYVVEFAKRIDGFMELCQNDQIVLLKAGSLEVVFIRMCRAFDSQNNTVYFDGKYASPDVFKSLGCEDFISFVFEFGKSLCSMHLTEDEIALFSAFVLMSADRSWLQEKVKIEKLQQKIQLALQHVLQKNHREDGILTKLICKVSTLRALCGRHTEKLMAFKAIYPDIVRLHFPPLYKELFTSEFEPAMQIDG
Type: cell-based
Description: CV-1 cells (CCL-70) were purchased from American Type Culture Collection (ATCC). The CV-1 cells (4×10^4 cells/well) were seeded on a 24-well culture plate and cultured overnight in a Dulbecco's Modified Eagle's Medium (DMEM) containing 10% fetal bovine serum (FBS). The CV-1 cells were maintained at 37° C. in a humidification thermostat containing 5% CO2 and 95% air. After culturing, the cells were transformed with RORE-tk-Luc reporter plasmid (100 ng) and ROR expression vector (5 ng) using calcium phosphate. […]

Row | Fold Activation | Compound
1 | 2.5 | CNC(=S)NCc1ccc(OC)c(OCc2ccccc2)c1 [Compound 41, 1-(3-benzyloxy-4-methoxy-benzyl)-3-methyl-thiourea]
2 | 0.7 | CNC(=S)NCc1cccc(Cl)c1 [Compound 28, 1-(3-chloro-benzyl)-3-methyl-thiourea]
3 | 0.8 | CNC(=S)NCc1ccccc1Cl [Compound 34, 1-(2-chloro-benzyl)-3-methyl-thiourea]
4 | 1.5 | CNC(=S)NCc1ccc(Oc2ccc(F)cc2)cc1 [Compound 52, 1-[4-(4-fluoro-phenoxy)-benzyl]-3-methyl-thiourea]
5 | 2.1 | CNC(=S)NCc1ccc(Oc2ccc(OC)cc2)cc1 [Compound 53, 1-[4-(4-methoxy-phenoxy)-benzyl]-3-methyl-thiourea]
6 | 1.8 | C=CCOc1ccccc1CNC(=S)NC [Compound 39, 1-(2-allyloxy-benzyl)-3-methyl-thiourea]
7 | 0.7 | CNC(=S)NCc1cccc(Cl)c1Cl [Compound 33, 1-(2,3-dichloro-benzyl)-3-methyl-thiourea]
8 | 1.0 | CNC(=S)NCc1ccc(Cl)c(Cl)c1 [Compound 27, 1-(3,4-dichloro-benzyl)-3-methyl-thiourea]
9 | 0.8 | CNC(=S)NCc1ccc(F)c(F)c1 [Compound 31, 1-(3,4-difluoro-benzyl)-3-methyl-thiourea]
10 | 1.2 | CCOc1cc(C=Cc2ccccc2)ccc1CNC(=S)NC [Compound 47, 1-(2-ethoxy-4-styryl-benzyl)-3-methyl-thiourea]
11 | 0.7 | CNC(=S)N[C@H](C)c1ccc(OC)cc1 [Compound 35, R-(+)-1-[1-(4-methoxy-phenyl)-ethyl]-3-methyl-thiourea]
12 | 0.9 | CNC(=S)NCc1ccc(F)cc1F [Compound 32, 1-(2,4-difluoro-benzyl)-3-methyl-thiourea]
13 | 1.1 | CNC(=S)NCc1cccc(F)c1 [Compound 29, 1-(3-fluoro-benzyl)-3-methyl-thiourea]
14 | 1.3 | CNC(=S)NCc1ccccc1Oc1ccccc1 [Compound 51, 1-methyl-3-(2-phenoxy-benzyl)-thiourea]
15 | 2.5 | CNC(=S)NCc1ccc(F)cc1 [Compound 30, 1-(4-fluoro-benzyl)-3-methyl-thiourea]

Further lines, the compound ahead of its results:

Row | Compound | Fold Activation
16 | CCOc1ccccc1CNC(=S)NC [Compound 16, 1-(2-ethoxy-benzyl)-3-methyl-thiourea] | 1.4
17 | CNC(=S)NCc1ccccc1C [Compound 7, 1-(2-methyl-benzyl)-3-methyl-thiourea] | 0.7
18 | CNC(=S)NCc1ccc(OC)c(O)c1 [Compound 25, 1-(3-hydroxy-4-methoxy-benzyl)-3-methyl-thiourea] | 1.9
19 | CNC(=S)NCc1ccc(OC)cc1OC [Compound 23, 1-(2,4-dimethoxy-benzyl)-3-methyl-thiourea] | 2.9
20 | CNC(=S)NCc1cccc(OC)c1OC [Compound 15, 1-(2,3-dimethoxy-benzyl)-3-methyl-thiourea] | 1.5
21 | CNC(=S)NCc1ccccc1Br [Compound 1, 1-(2-bromo-benzyl)-3-methyl-thiourea] | 3.4
22 | CNC(=S)NCc1ccc(N(C)C)cc1 [Compound 10, 1-(4-dimethylamino-benzyl)-3-methyl-thiourea] | 1.3
23 | CNC(=S)NCc1ccc(O)c(O)c1 [Compound 22, 1-(3,4-dihydroxy-benzyl)-3-methyl-thiourea] | 0.6
24 | CNC(=S)NCc1ccc([N+](=O)[O-])cc1 [Compound 12, 1-(4-nitro-benzyl)-3-methyl-thiourea] | 1.6
25 | CNC(=S)NCc1ccc(OC)cc1OC [Compound 5, 1-(2,4-dimethoxy-benzyl)-3-methyl-thiourea] | 1.1
26 | CNC(=S)NCc1ccc(C(F)(F)F)cc1 [Compound 11, 1-(4-trifluoromethyl-benzyl)-3-methyl-thiourea] | 2.3
27 | CCOc1cc(-c2ccc(C(F)(F)F)cc2)ccc1CNC(=S)NC [Compound 48, 1-(3-ethoxy-4′-trifluoromethyl-biphenyl-4-methyl)-3-methyl-thiourea] | 1.0
28 | CCOc1cc(-c2ccc(C(C)(C)C)cc2)ccc1CNC(N)=S [Compound 45, (4′-tert-butyl-3-ethoxy-biphenyl-4-methyl)-thiourea] | 1.0
29 | CNC(=S)NCc1cccc([N+](=O)[O-])c1 [Compound 17, 1-(3-nitro-benzyl)-3-methyl-thiourea] | 0.9
30 | CNC(=S)NCc1ccc(O)c(OC)c1 [Compound 9, 1-(4-hydroxy-3-methoxy-benzyl)-3-methyl-thiourea] | 1.4
31 | CNC(=S)NCc1ccc(C(C)(C)C)cc1 [Compound 13, 1-(4-t-butyl-benzyl)-3-methyl-thiourea] | 0.9
32 | CNC(=S)NCc1ccc(-c2ccccc2)cc1 [Compound 24, 1-(4-phenyl-benzyl)-3-methyl-thiourea] | 0.2
33 | CNC(=S)NCc1cc(OC)c(OC)c(OC)c1 [Compound 19, 1-(3,4,5-trimethoxy-benzyl)-3-methyl-thiourea] | 2.2
34 | CNC(=S)NCc1ccc(Cl)cc1 [Compound 3, 1-(4-chloro-benzyl)-3-methyl-thiourea] | 2.6
35 | CNC(=S)NCc1ccc2c(c1)OCO2 [Compound 8, 1-(benzo[1,3]dioxyl-5-methyl)-3-methyl-thiourea] | 1.7
36 | CNC(=S)NCc1cccc(C)c1 [Compound 6, 1-(3-methyl-benzyl)-3-methyl-thiourea] | 1.1
37 | CNC(=S)NCc1ccc(Cl)cc1Cl [Compound 21, 1-(2,4-dichloro-benzyl)-3-methyl-thiourea] | 0.6
38 | CNC(=S)NCc1ccc(OC)cc1 [Compound 4, 1-(4-methoxy-benzyl)-3-methyl-thiourea] | 3.4
39 | CNC(=S)NCc1ccc(C)cc1 [Compound 14, 1-(4-methyl-benzyl)-3-methyl-thiourea] | 3.9
40 | CNC(=S)NCc1cc(OC)cc(OC)c1 [Compound 20, 1-(3,5-dimethoxy-benzyl)-3-methyl-thiourea] | 1.0
41 | CCOc1cc(-c2ccccc2)ccc1CNC(=S)NC [Compound 44, 1-(3-ethoxy-biphenyl-4-methyl)-3-methyl-thiourea] | 1.2
42 | CNC(=S)NCc1ccccc1[N+](=O)[O-] [Compound 18, 1-(2-nitro-benzyl)-3-methyl-thiourea] | 2.1
43 | CNC(=S)NCc1ccc2ccccc2c1 [Compound 43, 1-methyl-3-naphthalene-2-methyl-thiourea] | 0.7
44 | CNC(=S)N[C@@H](C)c1ccc(OC)cc1 [Compound 36, S-(−)-1-[1-(4-methoxy-phenyl)-ethyl]-3-methyl-thiourea] | 0.6
45 | CNC(=S)NCc1ccc(Br)cc1 [Compound 2, 1-(4-bromo-benzyl)-3-methyl-thiourea] | 1.4
